Reference: PMC10733197, “Utilization of Rosuvastatin and Endogenous Biomarkers in Evaluating the Impact of Ritlecitinib on BCRP, OATP1B1, and OAT3 Transporter Activity” (Pharmaceutical Research, 2023)
Like-named read-outs stand apart in the source and are kept apart here.

Assays:
[1] = test system: OAT1/3; experiment: Plasma PDA as endogenous biomarker of OAT1/3 in clinical DDI studies; type: in vivo, human; details: for AUC24 / Cmax: geometric mean (%CV)
Protocol: Blood and urine samples were collected at prespecified timepoints. Rosuvastatin plasma samples (~ 6 mL) were collected predose and at 0.5, 1, 2, 3, 4, 5, 6, 8, 10, 12, 16, 24, 36, 48, and 72 h postdose. CP-I and PDA plasma samples (~ 6 mL) were collected predose and at 0.5, 1, 2, 3, 4, 5, 6, 8, 10, 12, 16, and 24 h post rosuvastatin dosing. Rosuvastatin urine samples were collected at predose, 0–6 h, 6–12, 12–24, 24–48, and 48–72 h postdose. Each participant emptied their bladder just prior to dosing.
Quantification of PDA was conducted by mass spectrometry according to Towner et al.. […] Mass spectrometry detection of the analytes were achieved using a SCIEX API QTrap 5500 mass spectrometry and a Turbo V electrospray ionization source in negative ion mode. Plasma samples were prepared by protein precipitation by spiking 50 μL of sample with 200 μL of 300 ng/mL 4-aminosalicylic acid internal standard. After vortexing/centrifugation, 200 μL of supernatant was transferred and 1 μL injections were analyzed. A 1/x^2 weighted linear regression was used to quantitate sample concentrations.
The PK parameters for rosuvastatin, CP-I and PDA were calculated for each participant and each treatment using Pfizer’s internally validated electronic noncompartmental analysis software (eNCA) version 2.4.4. Samples below the lower limit of quantitation were set to zero for the PK analysis. Actual sample collection times were used for the PK analysis.
Natural log transformed area under the plasma concentration-time profile from time 0 extrapolated to infinity (AUCinf), maximum plasma concentration (Cmax), and apparent renal clearance (CLr) were analyzed using a mixed effect model with treatment as a fixed effect and participant as a random effect (SAS version 9.4; SAS Institute, Cary, NC, USA). Estimates of the adjusted mean differences (Test-Reference) and corresponding 90% CIs were obtained from the model. The adjusted mean difference and 90% CIs for the differences were exponentiated to provide estimates of the ratio of adjusted geometric means (Test/Reference) and 90% CIs for the ratios. Rosuvastatin alone was the reference treatment, while the rosuvastatin coadministered with ritlecitinib was the Test treatment.

[2] = test system: OAT1/3; details: cited from earlier work; for PDA AUC ratio Observed: ref 1 (Rodrigues AD 2023)
[3] = biological target: T1, OAT3 (Homo sapiens, UniProt Q8TCC7); details: estrone 3-sulfate 0.1 µM; HEK293; existing in vitro data; cited from earlier work
T1 construct: expressed in transfected cells; host or cells: HEK293
T1 sequence (Q8TCC7 1-542): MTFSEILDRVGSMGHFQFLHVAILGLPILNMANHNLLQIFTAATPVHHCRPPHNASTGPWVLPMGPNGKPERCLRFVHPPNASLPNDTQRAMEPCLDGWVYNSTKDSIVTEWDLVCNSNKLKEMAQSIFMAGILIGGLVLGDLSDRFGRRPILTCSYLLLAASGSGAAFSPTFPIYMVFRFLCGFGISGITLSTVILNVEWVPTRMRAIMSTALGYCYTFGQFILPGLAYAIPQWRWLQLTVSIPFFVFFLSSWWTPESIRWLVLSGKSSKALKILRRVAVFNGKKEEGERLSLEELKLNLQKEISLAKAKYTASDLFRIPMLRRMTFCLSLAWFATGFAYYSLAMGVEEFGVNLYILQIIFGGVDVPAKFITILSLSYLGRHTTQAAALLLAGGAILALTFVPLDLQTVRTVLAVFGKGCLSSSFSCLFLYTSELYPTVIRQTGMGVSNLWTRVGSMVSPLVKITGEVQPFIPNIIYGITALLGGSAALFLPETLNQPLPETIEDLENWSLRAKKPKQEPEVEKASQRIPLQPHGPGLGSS

[4] = biological target: T2, OAT1 (Homo sapiens, UniProt Q4U2R8); details: cited from earlier work
T2 sequence (Q4U2R8 1-563): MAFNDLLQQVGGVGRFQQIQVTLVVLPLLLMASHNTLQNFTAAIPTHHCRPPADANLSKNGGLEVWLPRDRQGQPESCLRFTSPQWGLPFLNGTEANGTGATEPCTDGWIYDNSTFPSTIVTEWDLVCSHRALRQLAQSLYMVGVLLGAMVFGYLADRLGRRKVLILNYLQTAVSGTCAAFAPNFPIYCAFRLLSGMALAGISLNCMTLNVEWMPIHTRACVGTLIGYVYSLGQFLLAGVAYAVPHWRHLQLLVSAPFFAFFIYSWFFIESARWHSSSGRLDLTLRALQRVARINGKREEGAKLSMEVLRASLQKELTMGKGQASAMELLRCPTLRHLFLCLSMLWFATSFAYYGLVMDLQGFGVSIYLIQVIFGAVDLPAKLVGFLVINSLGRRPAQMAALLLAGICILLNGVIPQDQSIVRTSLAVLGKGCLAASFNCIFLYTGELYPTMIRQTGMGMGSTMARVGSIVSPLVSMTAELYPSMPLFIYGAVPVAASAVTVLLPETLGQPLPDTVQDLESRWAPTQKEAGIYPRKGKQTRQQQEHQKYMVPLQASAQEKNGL

[5] = cited from earlier work
[6] = set-up: method as in PMID 14693307; details: cited from earlier work
[7] = clinical; details: human, in vivo, 10 mg
Protocol: Blood and urine samples were collected at prespecified timepoints. […] Each participant emptied their bladder just prior to dosing. Plasma rosuvastatin was measured using a validated UPLC-MS/MS assay, in compliance with Pfizer standard operating procedures. Samples were thawed at room temperature and vortexed. […] Samples were then placed in a methanol/ dry ice bath for 5 min. […] Dry residues were reconstituted with 200 μL of reconstitution solution (mobile phase A). After vortexing, all tubes were centrifuged at 3000 rpm for 5 min at 4 °C, and 150 μL of the reconstituted samples were transferred into the deep round well microplates and sealed by aluminum foil at 165 °C. […] Mobile phase A was Milli-Q Type Water/methanol, ammonium acetate 2 mM and mobile phase B was acetonitrile. The monitored ion transitions were m/z 483.3 → 258.2; […] The validated rosuvastatin concentration calibration range was 20 to 25000 pg/mL. Urine rosuvastatin was measured using a validated HPLC-MS/MS assay, in compliance with Pfizer standard operating procedures. […] Mobile phase A was Milli-Q® type water/methanol, ammonium acetate 2 mM and mobile phase B was acetonitrile. The monitored ion transitions were m/z 483.3 → 258.2; […] The validated rosuvastatin concentration calibration range was 5 to 2000 ng/mL. […] Samples below the lower limit of quantitation were set to zero for the PK analysis. Actual sample collection times were used for the PK analysis. Natural log transformed area under the plasma concentration-time profile from time 0 extrapolated to infinity (AUCinf), maximum plasma concentration (Cmax), and apparent renal clearance (CLr) were analyzed using a mixed effect model with treatment as a fixed effect and participant as a random effect (SAS version 9.4; SAS Institute, Cary, NC, USA). […] Rosuvastatin alone was the reference treatment, while the rosuvastatin coadministered with ritlecitinib was the Test treatment.

[8] = test system: OATP2B1; set-up: method as in PMID 27737931; details: rosuvastatin coadministered with ronacaleret, an OATP2B1 inhibitor; cited from earlier work
[9] = Safety and tolerability in the clinical DDI study
Protocol: This was a Phase 1, 2-period fixed-sequence, multiple-dose, open-label study of the effect of ritlecitinib on the pharmacokinetics and renal clearance of a single, oral dose of rosuvastatin in healthy participants (Fig. 1). The safety and tolerability of rosuvastatin when coadministered with ritlecitinib was also evaluated.
In Period 1 on Day 1, following an overnight fast of at least 10 h, participants received a single oral administration of rosuvastatin 10 mg tablet. Period 1 was immediately followed by Period 2 with no washout. In Period 2 (coadministration), participants received oral ritlecitinib 200 mg once daily (QD) under non-fasting conditions for 7 days. On the morning of Day 8, a single dose of rosuvastatin 10 mg tablet was administered orally within approximately 5 min after administration of a ritlecitinib 200 mg dose under fasting conditions. On Days 9 and 10, participants continued to receive oral ritlecitinib 200 mg QD under non-fasting conditions.

[10] = test system: OCT1; set-up: method as in PMID 36807251; details: cited from earlier work
[11] = rosuvastatin 10 mg + ritlecitinib 200 mg QD
[12] = with vs without ritlecitinib 200 mg QD
[13] = rosuvastatin 10 mg single dose (without ritlecitinib) or ritlecitinib 200 mg QD, 12 healthy participants

Compound: Cc1ncc(CO)c(C(=O)O)c1O [PDA, pyridoxic acid]
- AUC24 [1, 11]: 69.47 (33)
- Cmax [1, 11]: 3.765 (28)
- AUC24 ([1]; rosuvastatin 10 mg alone): 67.34 (30)
- Cmax ([1]; rosuvastatin 10 mg alone): 3.664 (29)
- AUC24 % Ratio (Test/Reference) of Adjusted Geometric Means (90% CI) [1, 12]: 103.16 (87.65, 121.42) %
- Cmax % Ratio (Test/Reference) of Adjusted Geometric Means (90% CI) [1, 12]: 102.76 (87.58, 120.58) %
- increase in plasma AUC ([2]; plasma PDA in the presence of probenecid): 3.1 fold

Compound: CCc1nc(N)nc(N)c1-c1ccc(Cl)cc1 [Pyrimethamine]
- IC50 [3]: 16 µM
- IC50 [4]: 224 µM
- Cmax,u ([5]; inhibitor dose 10 mg): 0.04 µM
- Cmax,u ([5]; inhibitor dose 25 mg): 0.11 µM
- Cmax,u ([5]; inhibitor dose 75 mg): 0.37 µM
- PDA AUC ratio Observed ([2]; inhibitor dose 10 mg): 0.7
- PDA AUC ratio Observed ([2]; inhibitor dose 25 mg): 0.6
- PDA AUC ratio Observed ([2]; inhibitor dose 75 mg): 0.6

Compound: CC(C)c1nc(N(C)S(C)(=O)=O)nc(-c2ccc(F)cc2)c1/C=C/[C@@H](O)C[C@@H](O)CC(=O)O [Rosuvastatin, rosuvastatin]
- excreted in urine [6]: ≤ 10%
- AUC(0-inf) [7]: 0.0439 µg·h/mL
- CL renal [7]: 218 mL/min
- CL/F [7]: 228.0 (44) L/hr
- Cmax [7]: 4.5 ng/mL
- Tmax [7]: 4.01 h
- Vd/F [7]: 6020 L
- half-life [7]: 19.2 ± 7.02 h
- decrease in AUCinf exposure [8]: ~50%
- TEAEs of moderate severity ([9]; back pain, single dose of rosuvastatin 10 mg): 1
- number of treatment-emergent adverse events (TEAEs) [9, 13]: 4
- participants with TEAEs [9, 13]: 4
- TEAEs considered treatment-related by the investigator ([9]; rosuvastatin 10 mg single dose or ritlecitinib 200 mg QD): all of which were considered treatment-related

Compound: CNS(=O)(=O)Cc1ccc2[nH]cc(CCN(C)C)c2c1 [sumatriptan]
- increase in AUCinf ([10]; sumatriptan with ritlecitinib coadministration, due to OCT1 inhibition): 30%
- decrease in Cmax ([10]; sumatriptan with ritlecitinib coadministration): 13%
- exposure increase ([10]; sumatriptan, liver OCT1 inhibition by ritlecitinib and M2): up to 50%
